Publication PMC6220272, “Scaffold-Hopping from Synthetic Drugs by Holistic Molecular Representation” (Scientific Reports, 2018)

Assays:
Format in all cases: cell-based
RARβ = target: T1, RARβ (Homo sapiens, UniProt P10826); assay: Gal4 hybrid reporter gene assay RARβ (selectivity profiling)
T1 construct: expressed in transfected cells; host or cells: HEK293T
T1 sequence (P10826 183-417 limits assumed): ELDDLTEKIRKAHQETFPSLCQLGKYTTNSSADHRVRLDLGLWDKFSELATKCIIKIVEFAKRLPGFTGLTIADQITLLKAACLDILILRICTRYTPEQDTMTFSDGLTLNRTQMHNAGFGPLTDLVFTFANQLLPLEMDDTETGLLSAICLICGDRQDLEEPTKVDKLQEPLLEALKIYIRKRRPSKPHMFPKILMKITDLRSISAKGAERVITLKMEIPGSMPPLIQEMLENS
Protocol: (§1) Moreover, 7 was characterized for its ability to modulate RXR target gene expression under more physiological conditions. Hepatoma cells (HepG2) were incubated with 7 (30 µM) or reference RXR agonist bexarotene (9, 1 µM) for eight hours and mRNA expression of RXR regulated genes ATP-binding cassette transporter A1 (ABCA1), angiopoietin like protein 4 (ANGPTL4) and apolipoprotein E (ApoE) was analysed by quantitative real-time PCR.
(§2) The Gal4 hybrid reporter gene assays were conducted as reported previously[39]–[41]. pFA-CMV-based constructs comprising the ligand binding domain of the human nuclear receptor in question were used as expression plasmids for the chimera receptors. pFR-Luc (Stratagene) served as reporter plasmid and pRL-SV40 (Promega) for normalization of transfection efficiency and cell growth. The assays were conducted in 96-well format in HEK293T cells that were cultured as described previously[39]–[41]. Transient transfection was carried out using Lipofectamine LTX reagent (Invitrogen) according to the manufacturer’s protocol. After transfection and incubation with test compounds (12–14 h), cells were assayed for luciferase activity using Dual-Glo™ Luciferase Assay System (Promega) according to the manufacturer’s protocol. Luminescence was measured with an Infinite M200 luminometer (Tecan Deutschland GmbH). […]

PPARα = target: T2, PPARα (Homo sapiens, UniProt Q07869); assay: Gal4 hybrid reporter gene assay PPARα (selectivity profiling)
T2 construct: expressed in transfected cells; host or cells: HEK293T
T2 sequence (Q07869 239-466 limits assumed): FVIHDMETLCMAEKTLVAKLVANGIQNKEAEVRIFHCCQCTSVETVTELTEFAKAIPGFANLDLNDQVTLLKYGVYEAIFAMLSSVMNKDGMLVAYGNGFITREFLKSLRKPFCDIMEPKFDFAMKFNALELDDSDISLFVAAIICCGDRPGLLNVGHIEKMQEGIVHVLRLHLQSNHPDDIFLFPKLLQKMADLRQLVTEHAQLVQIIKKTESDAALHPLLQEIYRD
Protocol: as §1, §2

[1] = system: ATP-binding cassette transporter A1 (ABCA1) mRNA in HepG2 cells; assay: Target gene quantification (quantitative real-time PCR), ABCA1; settings: HepG2, 7 at 30 µM versus bexarotene at 1 µM, 8 h, qRT-PCR
Protocol: as §1
(§3) HepG2 cells were incubated with test compound 7 (30 µM) or bexarotene (1 µM) as positive control each dissolved in 0.1% DMSO or 0.1% DMSO alone as untreated control for 8 h, harvested, washed with cold phosphate buffered saline (PBS) and then directly used for RNA extraction with the Total RNA Mini Kit (R6834-02, Omega Bio-Tek, Inc., Norcross, GA, USA). 2 µg RNA were reverse-transcribed into cDNA using the High-Capacity cDNA Reverse Transcription Kit (4368814, Thermo Fischer Scientific, Inc.). RXR target gene expression was evaluated by quantitative real time PCR analysis with a StepOnePlus™ System (Life Technologies, Carlsbad, CA, USA) using PowerSYBRGreen (Life Technologies; 12.5 µl per well) and the primers reported in Supplementary Table 4[58]. […] The expression was quantified by the comparative ∆∆Ct method. […] Results are expressed as mean ± standard error of the mean (SEM) relative mRNA expression compared to DMSO (0.1%) control which was set as 1.

[2] = system: apolipoprotein E (ApoE) mRNA in HepG2 cells; assay: Target gene quantification (quantitative real-time PCR), ApoE; settings: HepG2, 7 at 30 µM versus bexarotene at 1 µM, 8 h, qRT-PCR
Protocol: as §1, §3

[3] = target: T3, human RXRα ligand binding domain (Gal4 hybrid receptor) (Homo sapiens, UniProt P19793); assay: Gal4 hybrid reporter gene assay RXRα; settings: HEK293T cells, n ≥ 4, read-out: RXRα EC50 ± SEM
T3 construct: expressed in transfected cells; host or cells: HEK293T
T3 sequence (P19793 227-458 limits assumed): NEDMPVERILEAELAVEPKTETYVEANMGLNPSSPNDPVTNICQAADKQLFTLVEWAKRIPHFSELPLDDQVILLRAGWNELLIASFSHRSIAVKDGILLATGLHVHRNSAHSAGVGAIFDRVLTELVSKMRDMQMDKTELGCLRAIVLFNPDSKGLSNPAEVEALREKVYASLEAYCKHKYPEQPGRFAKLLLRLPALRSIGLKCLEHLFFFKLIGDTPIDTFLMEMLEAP
Protocol: The 20 top-ranked synthetic compounds were selected and tested in vitro for their modulatory activity on RXR (Supplementary Table 1). Compounds were tested in specific hybrid reporter gene assays for RXRα, RXRβ and RXRγ modulation[39]–[41]. These assays rely on a constitutively expressed hybrid receptor composed of the respective human RXR ligand binding domain and the DNA binding domain of the Gal4 receptor from yeast. A Gal4 responsive firefly luciferase was used as reporter gene and constitutively expressed renilla luciferase served as internal control for transfection efficiency and test compound toxicity. All selected compounds were tested at 50 µM concentration on RXRα and for active compounds (Supplementary Fig. 1), dose response curves were recorded on all three RXR subtypes.
The Gal4 hybrid reporter gene assays were conducted as reported previously[39]–[41]. pFA-CMV-based constructs comprising the ligand binding domain of the human nuclear receptor in question were used as expression plasmids for the chimera receptors. pFR-Luc (Stratagene) served as reporter plasmid and pRL-SV40 (Promega) for normalization of transfection efficiency and cell growth. The assays were conducted in 96-well format in HEK293T cells that were cultured as described previously[39]–[41]. Transient transfection was carried out using Lipofectamine LTX reagent (Invitrogen) according to the manufacturer’s protocol. After transfection and incubation with test compounds (12–14 h), cells were assayed for luciferase activity using Dual-Glo™ Luciferase Assay System (Promega) according to the manufacturer’s protocol. Luminescence was measured with an Infinite M200 luminometer (Tecan Deutschland GmbH). All hybrid assays were validated with reference agonists (PPARα: GW7647; PPARγ: pioglitazone; PPARδ: L165,041; LXRα/β: T0901317; FXR: GW4064; RXRs: bexarotene; RARs: tretinoin; VDR: calcitriol; CAR: CITCO; PXR: SR12813) which yielded EC50 values in agreement with literature. The assays were conducted in duplicates with at least two independent repeats and for active compounds repeated without hybrid receptor coding DNA for every test compound at the highest tested concentration to exclude unspecific effects.
Supplementary Figure 2. Dose-response curves for RXRα activation. Compounds were tested in specific hybrid reporter gene assays for RXRα, RXRβ and RXRγ modulation.^1–3 These assays rely on a constitutively expressed hybrid receptor composed of the respective human RXR ligand binding domain and the DNA binding domain of the Gal4 receptor from yeast. A Gal4 responsive firefly luciferase was used as reporter gene and constitutively expressed renilla luciferase served as internal control for transfection efficiency and test compound toxicity. […]

activity on RARβ (RARβ): no activity
activity on PPARα (PPARα): no activity
EC50 [3]: 32.1 ± 0.9 µM
Structure (SMILES): CC(C)(C)c1cc(/C=N/NC(=O)c2ccc(N)cc2)cc(C(C)(C)C)c1 [Compound 7]
induction of ABCA1 mRNA expression [1]: comparable efficacy as RXR agonist bexarotene
induction of ApoE mRNA expression [2]: comparable efficacy as RXR agonist bexarotene
